Experiments:
HeLa cells [1] = experiment: [^3H]-triptolide competition binding in HeLa cells; conditions: 1 or 10 μM competitor one hour before [^3H]-triptolide, HeLa cells
Method: To gain insight into triptolide's mechanism of action Applicants sought to determine its specific binding activity utilizing a system employing [^3H]-triptolide. In addition to competition with 1 μM or 10 μM unlabeled triptolide, Applicants also measured the binding affinities of triptolide analogs (FIG. 1A). These analogs have been previously described and differ structurally from triptolide in the hydrolysis of the 12,13 epoxide (2), and formation of the ketone at the C-14 hydroxyl (3) (FIG. 1A). […] The effective interaction of these analogs with a presumed triptolide binding entity led us to their use in subsequent experiments addressing the mode of triptolide's biological functions.
To address first the nature of triptolide binding within the cell, Applicants determined this interaction was reversible as [^3H]-triptolide labeling was out competed by subsequent addition of excess unlabeled triptolide (FIG. 2A). […] Although 25% of the total cellular counts (i.e., representing bound triptolide) were found in the cytosolic fraction, it is uncertain whether this is specific binding or simply that free triptolide had dissociated from its binding protein due to experimental manipulation during fractionation. Since the data thus far had only shown binding within whole cells, Applicants next determined if this triptolide binding protein could be further characterized and/or enriched by its association with chromatographic reagents. HeLa cells were once again labeled with [^3H]-triptolide and total cell lysates were then passed over the anion exchange resin DEAE. Batch elutions with increasing NaCl concentrations were used to disassociate interactions of variable charge. […] Importantly, Applicants also observed that [^3H]-triptolide would only bind to intact cells in culture but would not bind to any component of a total cellular lysate as assessed by interaction with the DEAE resin. Negative results for a triptolide binding interaction were also observed with DNA-cellulose and the cation exchange resin SPFF (sulphopropyl).
Labeling studies were performed by the addition of approximately 30 nM [^3H]-triptolide directly into the culture media for one hour at 37° C. For cold competition studies, 1 μM triptolide was incubated with the cells for one hour before or after the addition of [^3H]-triptolide. Triptolide analog studies followed a similar protocol where concentrations used for competition were either 1 or 10 μM added before [^3H]-triptolide. Medium was removed and cells were washed 3× in cold PBS. Total cell lysates were prepared (150 mM NaCl, 50 mM Tris-HCl pH 7.4, 1 mM EDTA, 1% Triton X-100, and Complete protease inhibitors (Roche)) and protein was quantitated before measuring the [^3H]-triptolide binding activity via liquid scintillation.

HeLa cells [2] = experiment: Viability of parvalbumin-GFP transfected HeLa cells; assay type: cell-based; conditions: 100 nM
Text: To investigate further the role of calcium in triptolide function Applicants utilized a system to buffer intracellular calcium levels. Various GFP-parvalbumin (PV) fusion proteins can be specifically localized to either the nucleus or the cytoplasm through a nuclear localization or exclusion signal (NLS or NES, respectively) (Pusl, et al., 2002, J Biol Chem 277, 27517-27527). Parvalbumin has two EF-hand calcium binding domains and can efficiently reduce the availability of free calcium in the cell (Pauls, et al., 1996, Biochim Biophys Acta 1306, 39-54). HeLa cells were transiently transfected with the GFP vector control, NES-PV-GFP, or NLS-PV-GFP in calcium containing media and efficient expression of each construct was determined by GFP localization (FIG. 4A). Normal cell growth was first assessed throughout 48 hours with each of the constructs. […] For triptolide experiments, cells were transfected and allowed to express the construct for 24 hours before the addition of 100 nM triptolide. After 24 and 48 hours of treatment, cells were assessed for viability. […]
All parvalbumin-GFP constructs and control vectors (Pusl, et al., 2002, J Biol Chem 277, 27517-27527) were a gift of Anton Bennett (Yale University). […] Cell viability was assessed at 24 and 48 hours post triptolide addition by morphology and trypan blue dye exclusion.

Structure (SMILES): CC(C)[C@]12O[C@H]1[C@@H]1O[C@]13[C@]1(O[C@H]1C[C@H]1C4=C(CC[C@@]13C)C(=O)OC4)[C@@H]2O [triptolide, Triptolide]
- displacement of [^3H]-triptolide binding (HeLa cells [1]): significantly competed
- cell death (HeLa cells [2]; all transfection conditions, 48 hours): complete cell death
- cells rounded and no longer viable (HeLa cells [2]; control GFP vector or NLS-PV-GFP, 24 hours): 50%

— US20080188449A1, “Treatment of Conditions Caused By Calcium Abnormalities” (priority 2004, published 2008)
